Tests used:
[1] = system: melanotic melanoma B16; assay: Melanotic Melanoma B16 test; assay type: in vivo, C57BC/6 mice; details: days 1 through 9
Procedure: The animals used are C57BC/6 mice, all of the same sex, weighing a minimum of 17 g. and all within a 3-g. weight range. There are normally 10 animals per test group. A one-gram portion of melanotic melanoma B16 tumor is homogenized in 10 ml. of cold balanced salt solution and a 0.5-ml. aliquot of the homogenate is implanted intraperitoneally into each of the test mice. The test compounds are administered intraperitoneally on days one through 9 (relative to tumor inoculation) at various doses. The animals are weighed and survivors are recorded on a regular basis for 60 days. The median survival time and the ratio of survival time for treated (T)/control (C) animals are calculated. […] The criterion for efficacy is T/C×100≥125%.

[2] = system: lymphocytic leukemia P388; assay: Lymphocytic leukemia P388 test (intraperitoneal administration); assay type: in vivo, DBA/2 mice; details: days 1, 5 and 9
Outline: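 DBA/2 mice, single sex, 5-6 per group, inoculated i.p. with 10^6 P388 leukemia cells. Compounds given i.p. at various doses on days 1, 5 and 9; survival followed 30 days, reporting median survival time and treated/control (T/C) survival ratio.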

[3] = Mus musculus, ip, 3 mg./kg. i.p., efficacy ≥125%, read-out: T/C × 100
[4] = Mus musculus, ip, 6 mg./kg. i.p., efficacy ≥125%, read-out: T/C × 100
[5] = Mus musculus, ip, 25 mg./kg. i.p., efficacy ≥125%, read-out: T/C × 100
[6] = Mus musculus, ip, 50 mg./kg. i.p., efficacy ≥125%, read-out: T/C × 100
[7] = Mus musculus, P388, ip, 12.5 mg./kg. i.p., efficacy ≥125%, read-out: T/C × 100
[8] = Mus musculus, P388, ip, 25 mg./kg. i.p., efficacy ≥125%, read-out: T/C × 100
[9] = Mus musculus, P388, ip, 50 mg./kg. i.p., efficacy ≥125%, read-out: T/C × 100
[10] = Mus musculus, P388, ip, 100 mg./kg. i.p., efficacy ≥125%, read-out: T/C × 100
[11] = Mus musculus, P388, ip, 200 mg./kg. i.p., efficacy ≥125%, read-out: T/C × 100

## O=C1C2=C(NCCN3CCNCC3)CCC(NCCN3CCNCC3)=C2C(=O)c2c(O)ccc(O)c21 [Leuco-1,4-bis[2-(1-piperazinyl)ethylamino]-5,8-dihydroxyanthraquinone]
[1]; 3 mg./kg. i.p.
  Median Survival Time: 20.5 days
[1]; 6 mg./kg. i.p.
  Median Survival Time: 22.0 days
[1]; 12.5 mg./kg. i.p.
  Median Survival Time: 26.0 days
[1]; 25 mg./kg. i.p.
  Median Survival Time: 30.5 days
[1]; 50 mg./kg. i.p.
  Median Survival Time: 34.5 days
[1]; [3]
  response vs control in vivo at 3 mg/kg: 121%
[1]; [4]
  response vs control in vivo at 6 mg/kg: 129%
[1]; Mus musculus, ip, 12.5 mg./kg. i.p., efficacy ≥125%, read-out: T/C × 100
  response vs control in vivo at 12.5 mg/kg: 153%
[1]; [5]
  response vs control in vivo at 25 mg/kg: 179%
[1]; [6]
  response vs control in vivo at 50 mg/kg: 203%
[2]; 12.5 mg./kg. i.p.
  Median Survival Time: 14.0 days
[2]; 25 mg./kg. i.p.
  Median Survival Time: 15.0 days
[2]; 50 mg./kg. i.p.
  Median Survival Time: 16.0 days
[2]; 100 mg./kg. i.p.
  Median Survival Time: 21.0 days
[2]; 200 mg./kg. i.p.
  Median Survival Time: 7.0 days
[2]; [7]
  response vs control in vivo at 12.5 mg/kg: 156%
[2]; [8]
  response vs control in vivo at 25 mg/kg: 167%
[2]; [9]
  response vs control in vivo at 50 mg/kg: 178%
[2]; [10]
  response vs control in vivo at 100 mg/kg: 233%
[2]; [11]
  response vs control in vivo at 200 mg/kg: 78%

## O=C1C2=C(NCCN3CCCC3)CCC(NCCN3CCCC3)=C2C(=O)c2c(O)ccc(O)c21 [Leuco-1,4-bis[2-(1-pyrrolidinyl)ethylamino]-5,8-dihydroxyanthraquinone]
[1]; 12 mg./kg. i.p.
  Median Survival Time: 21.0 days
[1]; 25 mg./kg. i.p.
  Median Survival Time: 22.0 days
[1]; 50 mg./kg. i.p.
  Median Survival Time: 23.0 days
[1]; Mus musculus, ip, 12 mg./kg. i.p., efficacy ≥125%, read-out: T/C × 100
  response vs control in vivo at 12 mg/kg: 131%
[1]; [5]
  response vs control in vivo at 25 mg/kg: 137%
[1]; [6]
  response vs control in vivo at 50 mg/kg: 144%
[2]; 25 mg./kg. i.p.
  Median Survival Time: 15.0 days
[2]; 50 mg./kg. i.p.
  Median Survival Time: 16.0 days
[2]; 100 mg./kg. i.p.
  Median Survival Time: 19.0 days
[2]; 200 mg./kg. i.p.
  Median Survival Time: 23.0 days
[2]; [8]
  response vs control in vivo at 25 mg/kg: 136%
[2]; [9]
  response vs control in vivo at 50 mg/kg: 145%
[2]; [10]
  response vs control in vivo at 100 mg/kg: 173%
[2]; [11]
  response vs control in vivo at 200 mg/kg: 209%

## O=C1C2=C(NCCNCCO)CCC(NCCNCCO)=C2C(=O)c2c(O)ccc(O)c21 [Leuco-1,4-bis[2-(2-hydroxyethylamino)ethylamino]-5,8-dihydroxyanthraquinone]
[1]; 0.37 mg./kg. i.p.
  Median Survival Time: 22.0 days
[1]; 0.75 mg./kg. i.p.
  Median Survival Time: 28.5 days
[1]; 1.5 mg./kg. i.p.
  Median Survival Time: 30.0 days
[1]; 3 mg./kg. i.p.
  Median Survival Time: 20.5 days
[1]; 6 mg./kg. i.p.
  Median Survival Time: 9.5 days
[1]; Mus musculus, ip, 0.37 mg./kg. i.p., efficacy ≥125%, read-out: T/C × 100
  response vs control in vivo at 0.37 mg/kg: 137%
[1]; Mus musculus, ip, 0.75 mg./kg. i.p., efficacy ≥125%, read-out: T/C × 100
  response vs control in vivo at 0.75 mg/kg: 178%
[1]; Mus musculus, ip, 1.5 mg./kg. i.p., efficacy ≥125%, read-out: T/C × 100
  response vs control in vivo at 1.5 mg/kg: 187%
[1]; [3]
  response vs control in vivo at 3 mg/kg: 128%
[1]; [4]
  response vs control in vivo at 6 mg/kg: 59%
[2]; 0.04 mg./kg. i.p.
  Median Survival Time: 18.5 days
[2]; 0.09 mg./kg. i.p.
  Median Survival Time: 21.5 days
[2]; 0.19 mg./kg. i.p.
  Median Survival Time: 21.5 days
[2]; 0.39 mg./kg. i.p.
  Median Survival Time: 22.0 days
[2]; 0.78 mg./kg. i.p.
  Median Survival Time: 28.0 days
[2]; 1.5 mg./kg. i.p.
  Median Survival Time: > 30.0 days
[2]; 3.1 mg./kg. i.p.
  Median Survival Time: 26.0 days
[2]; 6.2 mg./kg. i.p.
  Median Survival Time: 23.0 days
[2]; 12.5 mg./kg. i.p.
  Median Survival Time: 23.5 days
[2]; 25 mg./kg. i.p.
  Median Survival Time: 12.0 days
[2]; Mus musculus, P388, ip, 0.19 mg./kg. i.p., efficacy ≥125%, read-out: T/C × 100
  response vs control in vivo at 0.19 mg/kg: 205%
[2]; Mus musculus, P388, ip, 0.04 mg./kg. i.p., efficacy ≥125%, read-out: T/C × 100
  response vs control in vivo at 0.04 mg/kg: 176%
[2]; Mus musculus, P388, ip, 0.09 mg./kg. i.p., efficacy ≥125%, read-out: T/C × 100
  response vs control in vivo at 0.09 mg/kg: 205%
[2]; Mus musculus, P388, ip, 0.39 mg./kg. i.p., efficacy ≥125%, read-out: T/C × 100
  response vs control in vivo at 0.39 mg/kg: 209%
[2]; Mus musculus, P388, ip, 0.78 mg./kg. i.p., efficacy ≥125%, read-out: T/C × 100
  response vs control in vivo at 0.78 mg/kg: 267%
[2]; Mus musculus, P388, ip, 1.5 mg./kg. i.p., efficacy ≥125%, read-out: T/C × 100
  response vs control in vivo at 1.5 mg/kg: > 286%
[2]; Mus musculus, P388, ip, 3.1 mg./kg. i.p., efficacy ≥125%, read-out: T/C × 100
  response vs control in vivo at 3.1 mg/kg: 248%
[2]; Mus musculus, P388, ip, 6.2 mg./kg. i.p., efficacy ≥125%, read-out: T/C × 100
  response vs control in vivo at 6.2 mg/kg: 219%
[2]; [7]
  response vs control in vivo at 12.5 mg/kg: 224%
[2]; [8]
  response vs control in vivo at 25 mg/kg: 114%
